Among the data in patent publication US9745320B2, “Five-and-six-membered heterocyclic compound, and preparation method, pharmaceutical composition and use thereof” (SHANGHAI CHEMEXPLORER CO., LTD., priority 2013, dated 2017) are IC50 values, retold here.

Each structure is given as a SMILES string. Where only a bound is given, the exact number is not on record here.

Holding throughout (type): biochemical
The target in one assay is T1, JAK3 (Homo sapiens, UniProt P52333).
T1 sequence (P52333 1-1124): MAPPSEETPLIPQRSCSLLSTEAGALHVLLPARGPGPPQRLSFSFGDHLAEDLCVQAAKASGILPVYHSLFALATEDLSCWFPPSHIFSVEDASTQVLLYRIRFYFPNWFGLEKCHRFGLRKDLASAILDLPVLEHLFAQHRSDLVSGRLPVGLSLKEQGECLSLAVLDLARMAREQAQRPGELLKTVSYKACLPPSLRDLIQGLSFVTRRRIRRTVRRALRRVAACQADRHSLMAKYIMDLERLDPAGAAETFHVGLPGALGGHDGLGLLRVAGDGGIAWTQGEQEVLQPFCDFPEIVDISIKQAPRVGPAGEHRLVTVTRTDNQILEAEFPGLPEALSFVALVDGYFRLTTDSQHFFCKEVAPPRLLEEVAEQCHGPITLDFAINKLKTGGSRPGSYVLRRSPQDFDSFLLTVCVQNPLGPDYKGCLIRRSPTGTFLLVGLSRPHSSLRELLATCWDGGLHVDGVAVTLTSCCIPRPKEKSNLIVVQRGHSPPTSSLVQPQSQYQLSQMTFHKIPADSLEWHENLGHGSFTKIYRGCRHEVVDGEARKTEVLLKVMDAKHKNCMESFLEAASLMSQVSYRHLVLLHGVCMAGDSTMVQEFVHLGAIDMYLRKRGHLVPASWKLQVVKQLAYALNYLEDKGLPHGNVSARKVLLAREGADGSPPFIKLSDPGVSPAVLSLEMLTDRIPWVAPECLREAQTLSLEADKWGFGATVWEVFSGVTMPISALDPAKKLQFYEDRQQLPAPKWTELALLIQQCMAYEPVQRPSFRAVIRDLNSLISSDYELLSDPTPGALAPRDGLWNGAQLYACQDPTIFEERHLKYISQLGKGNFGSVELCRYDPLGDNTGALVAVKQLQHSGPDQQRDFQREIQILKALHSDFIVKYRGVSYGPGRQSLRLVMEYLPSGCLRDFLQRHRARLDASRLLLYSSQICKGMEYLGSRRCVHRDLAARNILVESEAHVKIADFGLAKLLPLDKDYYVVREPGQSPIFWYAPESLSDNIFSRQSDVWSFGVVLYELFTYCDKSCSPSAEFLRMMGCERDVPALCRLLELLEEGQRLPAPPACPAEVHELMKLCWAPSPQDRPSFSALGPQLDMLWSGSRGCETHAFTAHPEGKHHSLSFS
Description: JAK 3 enzymatic inhibitory activity IC50 assay (Caliper conversion rate). The note with it: Km ATP, 28° C., 1 hour; read-out: JAK 3 enzymatic inhibitory activity IC50. As to the method: (§1) Biological effect: intracytoplasmic JAK 1,2,3 enzymatic inhibitory activity IC50 assay
(§2) JAK1 buffer solution: 25 mM HEPES, pH 7.5, 0.01% Brij-35, 0.01 M Triton. JAK2,3 buffer solution: 50 mM HEPES, pH 7.5, 0.0015% Brij-35.
(§3) 2. Compound was formulated in 100% DMSO in a concentration gradient, deposited to a 384-well plate with a final concentration of 2% of DMSO.
3. JAK2,3 enzymes were diluted to having an optimum concentration with the following buffer: 50 mM HEPES, pH 7.5, 0.0015% Brij-35, 2 mM DTT. JAK1 enzyme was diluted to having an optimum concentration with the following buffer: 25 mM HEPES, pH 7.5, 0.01% Brij-35, 2 mM DTT, 0.01M Triton. Then they were transferred to a 384-well plate and incubated with the compound for a certain time. […]
(§4) 5. Read the conversion rate by Caliper Reader, and the inhibition rate are calculated according to the average of two tests.

The next assay concerns the target JAK2 (Homo sapiens, UniProt O60674). Briefly: JAK 2 enzymatic inhibitory activity IC50 assay (Caliper conversion rate). The note with it: Km ATP, 28° C., 1 hour. As to the method:
as §1, §2, §3
(§5) 3. JAK2,3 enzymes were diluted to having an optimum concentration with the following buffer: 50 mM HEPES, pH 7.5, 0.0015% Brij-35, 2 mM DTT. JAK1 enzyme was diluted to having an optimum concentration with the following buffer: 25 mM HEPES, pH 7.5, 0.01% Brij-35, 2 mM DTT, 0.01M Triton. Then they were transferred to a 384-well plate and incubated with the compound for a certain time.
(§6) 4. JAK2,3 substrate was diluted to having an optimum concentration with the following buffer: 50 mM HEPES, pH 7.5, 0.0015% Brij-35, 10 mM MgCl2, Km adenosine triphosphate. JAK1 substrate was diluted to having an optimum concentration with the following buffer: 25 mM HEPES, pH 7.5, 0.01% Brij-35, 10 mM MgCl2, 0.01 M Triton. Km adenosine triphosphate was added into 384-well plates to initiate reactions, and the reaction were carried out at 28° C. for 1 hour.
as §4

The next assay addresses JAK1 (Homo sapiens, UniProt P23458). Briefly: JAK 1 enzymatic inhibitory activity IC50 assay (Caliper conversion rate). The conditions noted are these: Km ATP, 28° C., 1 hour. As to the method:
as §1, §2, §3, §5, §6, §4

JAK1, sequence (P23458 whole entry, species assumed): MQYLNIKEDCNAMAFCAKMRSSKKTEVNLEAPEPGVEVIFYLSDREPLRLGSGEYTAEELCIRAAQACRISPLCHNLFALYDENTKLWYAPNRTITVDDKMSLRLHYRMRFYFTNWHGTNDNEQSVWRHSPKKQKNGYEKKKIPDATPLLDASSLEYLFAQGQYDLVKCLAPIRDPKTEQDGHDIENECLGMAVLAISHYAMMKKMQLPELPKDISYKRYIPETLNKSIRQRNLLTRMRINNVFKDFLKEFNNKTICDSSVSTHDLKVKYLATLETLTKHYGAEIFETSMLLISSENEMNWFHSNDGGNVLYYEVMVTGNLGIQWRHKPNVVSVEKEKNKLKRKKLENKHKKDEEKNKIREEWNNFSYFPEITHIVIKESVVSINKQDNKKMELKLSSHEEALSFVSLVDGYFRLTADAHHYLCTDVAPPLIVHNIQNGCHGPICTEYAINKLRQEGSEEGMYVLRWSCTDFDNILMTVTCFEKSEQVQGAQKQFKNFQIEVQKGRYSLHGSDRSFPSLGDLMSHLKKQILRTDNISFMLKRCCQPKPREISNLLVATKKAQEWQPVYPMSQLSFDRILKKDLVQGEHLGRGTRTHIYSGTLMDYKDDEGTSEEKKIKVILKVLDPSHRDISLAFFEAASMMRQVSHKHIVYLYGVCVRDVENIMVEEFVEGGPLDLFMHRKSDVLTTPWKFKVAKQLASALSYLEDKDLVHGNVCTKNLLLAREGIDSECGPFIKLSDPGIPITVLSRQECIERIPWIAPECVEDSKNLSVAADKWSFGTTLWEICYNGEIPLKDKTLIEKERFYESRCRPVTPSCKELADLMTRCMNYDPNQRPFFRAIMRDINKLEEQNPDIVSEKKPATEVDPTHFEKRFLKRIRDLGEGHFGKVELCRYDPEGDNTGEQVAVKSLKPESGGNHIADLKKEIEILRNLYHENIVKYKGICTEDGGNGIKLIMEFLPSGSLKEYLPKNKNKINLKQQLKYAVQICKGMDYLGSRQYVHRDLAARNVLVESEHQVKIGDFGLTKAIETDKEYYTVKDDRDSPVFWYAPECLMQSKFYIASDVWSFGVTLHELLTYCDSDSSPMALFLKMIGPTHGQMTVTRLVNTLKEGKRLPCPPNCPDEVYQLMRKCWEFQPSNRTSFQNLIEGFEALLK
JAK2, sequence (O60674 whole entry, species assumed): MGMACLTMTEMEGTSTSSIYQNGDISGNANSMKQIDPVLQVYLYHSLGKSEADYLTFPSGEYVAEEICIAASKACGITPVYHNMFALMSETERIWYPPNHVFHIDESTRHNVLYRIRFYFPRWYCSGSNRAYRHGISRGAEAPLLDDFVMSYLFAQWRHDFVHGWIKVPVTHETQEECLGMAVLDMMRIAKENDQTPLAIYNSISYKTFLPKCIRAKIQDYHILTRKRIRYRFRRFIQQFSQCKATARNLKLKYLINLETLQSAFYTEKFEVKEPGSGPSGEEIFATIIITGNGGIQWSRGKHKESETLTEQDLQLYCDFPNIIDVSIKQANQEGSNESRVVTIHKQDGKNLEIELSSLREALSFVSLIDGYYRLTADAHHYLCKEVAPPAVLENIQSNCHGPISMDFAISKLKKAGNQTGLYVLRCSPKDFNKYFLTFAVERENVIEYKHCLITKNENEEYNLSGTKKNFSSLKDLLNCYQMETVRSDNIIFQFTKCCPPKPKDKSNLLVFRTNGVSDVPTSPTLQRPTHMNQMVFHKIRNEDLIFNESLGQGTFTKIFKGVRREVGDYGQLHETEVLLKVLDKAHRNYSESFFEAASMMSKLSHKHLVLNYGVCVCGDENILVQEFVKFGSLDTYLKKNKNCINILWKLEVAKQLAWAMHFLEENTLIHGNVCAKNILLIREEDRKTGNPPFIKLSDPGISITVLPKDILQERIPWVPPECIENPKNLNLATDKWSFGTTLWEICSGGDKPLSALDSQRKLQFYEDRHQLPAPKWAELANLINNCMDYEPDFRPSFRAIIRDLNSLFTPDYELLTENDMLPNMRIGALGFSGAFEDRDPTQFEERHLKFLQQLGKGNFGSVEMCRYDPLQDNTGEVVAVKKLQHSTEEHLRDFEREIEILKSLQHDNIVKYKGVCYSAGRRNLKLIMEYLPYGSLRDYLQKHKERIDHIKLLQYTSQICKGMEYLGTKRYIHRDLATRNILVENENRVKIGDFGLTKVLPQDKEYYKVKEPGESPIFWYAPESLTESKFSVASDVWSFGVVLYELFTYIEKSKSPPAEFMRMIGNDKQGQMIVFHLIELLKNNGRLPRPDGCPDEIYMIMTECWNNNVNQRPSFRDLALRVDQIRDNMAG

For `CCS(=O)(=O)N1CC(CC#N)(n2cc(-c3nc(Nc4ccc5[nH]ncc5c4)nc4ccsc34)cn2)C1` [Compound T-57, 2-(3-(4-(2-((1H-Indazol-5-yl)amino)thieno[3,2-d]pyrimidin-4-yl)-1H-pyrazol-1-yl)-1-(ethylsulfonyl)azetidin-3-yl)acetonitrile], the figures for the IC50 at JAK3, at JAK2 and against JAK1 were 0.05 to 0.5 µM, under 0.05 µM and 0.05 to 0.5 µM, respectively.
Turning to `CCS(=O)(=O)N1CC(CC#N)(n2cc(-c3nc(NC4CC4)nc4ccsc34)cn2)C1` [Compound T-28, 2-(3-(4-(2-(Cyclopropylamino)thieno[3,2-d]pyrimidin-4-yl)-1H-pyrazol-1-yl)-1-(ethylsulfonyl)azetidin-3-yl)acetonitrile], the IC50 at JAK3, against JAK2 and at JAK1 was over 1 µM in each case.
For `CCS(=O)(=O)N1CC(CC#N)(n2cc(-c3nc(Nc4ccc5[nH]cnc5c4)nc4ccsc34)cn2)C1` [Compound T-58, 2-(3-(4-(2-((1H-Benzo[d]imidazol-5-yl)amino)thieno[3,2-d]pyrimidin-4-yl)-1H-pyrazol-1-yl)-1-(ethylsulfonyl)azetidin-3-yl)acetonitrile], the IC50 – broadly, the point on the concentration scale where inhibition reaches its midpoint – was 0.05 to 0.5 µM at JAK3, under 0.05 µM against JAK2 and under 0.05 µM against JAK1.
In the case of `N#CCC(C1CCCC1)n1cc(-c2nc(Nc3ccccc3)nc3ccsc23)cn1` (stereo not shown) [Compound T-03, 3-Cyclopentyl-3-(4-(2-(phenylamino)thieno[3,2-d]pyrimidin-4-yl)-1H-pyrazol-1-yl)propanenitrile], the IC50 on JAK3 is over 1 µM; against JAK2, under 0.05 µM.
On to `CCn1cc(Nc2nc(-c3cnn(C4(CC#N)CN(S(=O)(=O)CC)C4)c3)c3sccc3n2)cn1` [Compound T-40, 2-(3-(4-(2-((1-Ethyl-1H-pyrazol-4-yl)amino)thieno[3,2-d]pyrimidin-4-yl)-1H-pyrazol-1-yl)-1-(ethylsulfonyl)azetidin-3-yl)acetonitrile], for which the IC50 on JAK3, on JAK2 and on JAK1 was under 0.05 µM throughout.
Consider `C[C@H](CO)n1cc(Nc2nc(-c3cnn(C4(CC#N)CN(S(C)(=O)=O)C4)c3)c3sccc3n2)cn1` [Compound T-84, (R)-2-(3-(4-(2-((1-(1-Hydroxypropan-2-yl)-1H-pyrazol-4-yl)amino)thieno[3,2-d]pyrimidin-4-yl)-1H-pyrazol-1-yl)-1-(methylsulfonyl)azetidin-3-yl)acetonitrile], for which the IC50 at JAK3, at JAK2 and against JAK1 was under 0.05 µM each time.
Turning to `CCS(=O)(=O)N1CC(CC#N)(n2cc(-c3nc(Nc4cnn(CCO)c4)nc4ccsc34)cn2)C1` [Compound T-51, 2-(1-(Ethylsulfonyl)-3-(4-(2-((1-(2-hydroxyethyl)-1H-pyrazol-4-yl)amino)thieno[3,2-d]pyrimidin-4-yl)-1H-pyrazol-1-yl)azetidin-3-yl)acetonitrile], the IC50 on JAK3, against JAK2 and against JAK1 was under 0.05 µM in each case.
As for `N#CCC1(n2cc(-c3nc(Nc4cnn(CCN5CCOCC5)c4)nc4ccsc34)cn2)CCOCC1` [Compound T-50, 2-(4-(4-(2-((1-(2-Morpholinoethyl)-1H-pyrazol-4-yl)amino)thieno[3,2-d]pyrimidin-4-yl)-1H-pyrazol-1-yl)tetrahydro-2H-pyran-4-yl)acetonitrile], the IC50 on JAK3 was 0.5 to 1 µM; at JAK2, under 0.05 µM; on JAK1 it was 0.5 to 1 µM.
With `CCS(=O)(=O)N1CC(CC#N)(n2cc(-c3nc(Nc4cnn(C5CNC5)c4)nc4ccsc34)cn2)C1` [Compound T-65, 2-(3-(4-(2-((1-(Azetidin-3-yl)-1H-pyrazol-4-yl)amino)thieno[3,2-d]pyrimidin-4-yl)-1H-pyrazol-1-yl)-1-(ethylsulfonyl)azetidin-3-yl)acetonitrile], the values for the IC50 on JAK3, on JAK2 and against JAK1 were 0.05 to 0.5 µM, under 0.05 µM and under 0.05 µM, respectively.
Turning to `CCS(=O)(=O)N1CC(CC#N)(n2cc(-c3nc(Nc4cnn(CCCN5CCN(C)CC5)c4)nc4ccsc34)cn2)C1` [Compound T-67, 2-(1-(Ethylsulfonyl)-3-(4-(2-((1-(3-(4-methylpiperazin-1-yl)propyl)-1H-pyrazol-4-yl)amino)thieno[3,2-d]pyrimidin-4-yl)-1H-pyrazol-1-yl)azetidin-3-yl)acetonitrile], the figures for the IC50 on JAK3, at JAK2 and on JAK1 were under 0.05 µM, under 0.05 µM and 0.05 to 0.5 µM, respectively.
With `CC(CC#N)n1cc(-c2nc(Nc3ccccc3)nc3ccsc23)cn1` (stereo not shown) [Compound T-02, 3-(4-(2-(Phenylamino)thieno[3,2-d]pyrimidin-4-yl)-1H-pyrazol-1-yl)butanenitrile], the IC50 at JAK3 was over 1 µM; at JAK2, 0.05 to 0.5 µM.
Consider `CC(CC#N)n1cc(-c2nc(NCc3ccccc3)nc3ccsc23)cn1` (stereo not shown) [Compound T-01, 3-(4-(2-(Benzylamino)thieno[3,2-d]pyrimidin-4-yl)-1H-pyrazol-1-yl)butanenitrile], for which the IC50 at JAK3 and against JAK2 was over 1 µM each time.
Regarding `CCS(=O)(=O)N1CC(CC#N)(n2cc(-c3nc(Nc4ccc(OCCN5CCOCC5)cc4)nc4ccsc34)cn2)C1` [Compound T-08, 2-(1-(Ethylsulfonyl)-3-(4-(2-((4-(2-morpholinoethoxy)phenyl)amino)thieno[3,2-d]pyrimidin-4-yl)-1H-pyrazol-1-yl)azetidin-3-yl)acetonitrile], the IC50 at JAK3 is 0.05 to 0.5 µM; on JAK2 it was under 0.05 µM.
The corresponding values for `N#CCC(C1CCCC1)n1cc(-c2nc(Nc3cncnc3)nc3ccsc23)cn1` (stereo not shown) [Compound T-04, 3-Cyclopentyl-3-(4-(2-(pyrimidin-5-ylamino)thieno[3,2-d]pyrimidin-4-yl)-1H-pyrazol-1-yl)propanenitrile] are over 1 µM and under 0.05 µM.
Regarding `CCS(=O)(=O)N1CC(CC#N)(n2cc(-c3nc(NC4CCCCC4)nc4ccsc34)cn2)C1` [Compound T-27, 2-(3-(4-(2-(Cyclohexylamino)thieno[3,2-d]pyrimidin-4-yl)-1H-pyrazol-1-yl)-1-(ethylsulfonyl)azetidin-3-yl)acetonitrile], the IC50 on JAK3 and on JAK2 was over 1 µM in each case.
Turning to `CCS(=O)(=O)N1CC(CC#N)(n2cc(-c3nc(Nc4ccc(F)cc4)nc4ccsc34)cn2)C1` [Compound T-24, 2-(1-(Ethylsulfonyl)-3-(4-(2-((4-fluorophenyl)amino)thieno[3,2-d]pyrimidin-4-yl)-1H-pyrazol-1-yl)azetidin-3-yl)acetonitrile], the IC50 on JAK3 is over 1 µM; at JAK2, under 0.05 µM.
On the same counts, the results for `CCS(=O)(=O)N1CC(CC#N)(n2cc(-c3nc(NC4CCOCC4)nc4ccsc34)cn2)C1` [Compound T-06, 2-(1-(Ethylsulfonyl)-3-(4-(2-((tetrahydro-2H-pyran-4-yl)amino)thieno[3,2-d]pyrimidin-4-yl)-1H-pyrazol-1-yl)azetidin-3-yl)acetonitrile] are over 1 µM and over 1 µM.
